Measured values published in ChEMBL document CHEMBL5620415, “Design, synthesis and anti-hepatic fibrosis activity of novel diphenyl vitamin D receptor agonists” (Eur J Med Chem, 2023).
Calls of active or inactive are those of the source. The calls are words filed in the database; no cut-off is given here.

Assays:
Mus musculus [1] = assay: Anti-fibrotic effect in bile duct ligation (BDL) surgery-induced hepatic fibrosis C57BL/6 mouse model assessed as reduction the lesions at 500 ug/kg, po five times a week for 2 weeks by Masson's Trichrome staining based assay; type: functional, organism-based; details: dose 500.0 µg/kg
Mus musculus [2] = assay: Anti-fibrotic effect in bile duct ligation (BDL) surgery-induced hepatic fibrosis C57BL/6 mouse model assessed as inhibition of serum AST level at 500 ug/kg, po five times a week for 2 weeks; type: functional, organism-based; details: dose 500.0 µg/kg
Mus musculus [3] = assay: Anti-fibrotic effect in CCl4-induced hepatic fibrosis C57BL/6 mouse model assessed as inhibition of collagen deposition at 500 ug/kg, po five times a week for 2 weeks by Masson's Trichrome […] staining based assay; type: functional, organism-based; details: dose 500.0 µg/kg
Mus musculus [4] = assay: Anti-fibrotic effect in CCl4-induced hepatic fibrosis C57BL/6 mouse model assessed as inhibition of Timp-1 expression in liver at 500 ug/kg, po five times a week for 2 weeks by RT-qPCR analysis; type: functional, organism-based; details: dose 500.0 µg/kg
Mus musculus [5] = assay: Anti-fibrotic effect in bile duct ligation (BDL) surgery-induced hepatic fibrosis C57BL/6 mouse model assessed as inhibition of collagen deposition in liver at 500 ug/kg, po five times a week for 2 weeks by Masson's Trichrome […] staining based assay; type: functional, organism-based; details: dose 500.0 µg/kg
Mus musculus [6] = assay: Anti-fibrotic effect in bile duct ligation (BDL) surgery-induced hepatic fibrosis C57BL/6 mouse model assessed as inhibition of serum total bile acid (TBA) level at 500 ug/kg, po five times a week for 2 weeks; type: functional, organism-based; details: dose 500.0 µg/kg
[7] = Cytotoxicity against human LX-2 cells by CCK-8 assay; type: toxicity, cell-based
Mus musculus [8] = assay: Anti-fibrotic effect in bile duct ligation (BDL) surgery-induced hepatic fibrosis C57BL/6 mouse model assessed as inhibition of serum ALT level at 500 ug/kg, po five times a week for 2 weeks; type: functional, organism-based; details: dose 500.0 µg/kg
Mus musculus [9] = assay: Anti-fibrotic effect in CCl4-induced hepatic fibrosis C57BL/6 mouse model assessed as decrease in inflammatory cell infiltration at 500 ug/kg, po five times a week for 2 weeks by Masson's Trichrome staining based assay; type: functional, organism-based; details: dose 500.0 µg/kg
[10] = molecular target: T1, Vitamin D3 receptor (Homo sapiens) (UniProt P11473); assay: Agonist activity at Vitamin D receptor in HEK293 cells assessed as receptor transactivation incubated for 48 hrs by dual-luciferase reporter assay; type: cell-based; details: filed as agonist, dose 0.01-1 µM
T1 sequence (whole entry): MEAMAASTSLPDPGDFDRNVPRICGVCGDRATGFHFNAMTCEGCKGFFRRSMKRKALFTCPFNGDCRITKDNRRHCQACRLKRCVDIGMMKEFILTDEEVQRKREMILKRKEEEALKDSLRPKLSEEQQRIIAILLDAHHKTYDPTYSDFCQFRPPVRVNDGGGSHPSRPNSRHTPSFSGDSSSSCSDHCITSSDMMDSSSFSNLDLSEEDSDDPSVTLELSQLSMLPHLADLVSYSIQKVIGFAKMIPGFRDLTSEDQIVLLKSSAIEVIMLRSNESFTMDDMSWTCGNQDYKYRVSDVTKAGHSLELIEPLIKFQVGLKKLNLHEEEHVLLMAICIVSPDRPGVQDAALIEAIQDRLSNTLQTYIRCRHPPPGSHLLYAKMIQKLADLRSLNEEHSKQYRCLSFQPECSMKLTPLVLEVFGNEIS

Activity [10]: Dose-Dependent Effect
SMILES: OCc1ccc(/C=C/c2ccc(OCCCC(F)(F)F)cc2)cc1CO
Activity (Mus musculus [1]): Active
Activity (Mus musculus [2]): Active
Activity (Mus musculus [3]): Active
Activity (Mus musculus [4]): Active
Activity (Mus musculus [5]): Active
Activity (Mus musculus [6]): Active
IC50 [7]: > 30 µM
Activity (Mus musculus [8]): Active
Activity (Mus musculus [9]): Active
